Data published in publication PMC11858854, “In Vitro and In Vivo Assessment of Pharmacokinetic Profile of Peramivir in the Context of Inhalation Therapy” (Pharmaceuticals, 2025).

Key:
[1] = system: LLC-PK1 cells; assay: Permeability assay, LLC-PK1-MOCK cells; assay type: in vitro ADME; settings: LLC-PK1, 2 μM, Mean ± SD, n = 3
Description: When the cell transport system was mature in culture, experiments were performed. […] When assessing permeability in basolateral to apical (B-A) direction, 100 μL of pre-warmed Buffer B and 600 μL of pre-warmed test solutions were added to the apical and basolateral compartments, respectively. The Transwells® were placed in an incubator at 37 °C and 5% CO2 for a duration of 2 h. At the end of the incubation period, the samples in the apical and basolateral sides were collected separately and were briefly kept at a temperature of −40 °C for LC-MS/MS analysis. […] The cells were transferred to Transwell® plates (Corning, NY, USA) at a density of 2 × 10^4 cells/well with 200 μL of cell suspension per well, while 850 μL of complete medium was added to the basolateral chamber. […] The samples were collected separately and were briefly kept at a temperature of −40 °C for LC-MS/MS analysis.

[2] = biological target: T1, human OCT2 (Homo sapiens, UniProt O15244); assay: Uptake study, HEK293 cells overexpressing OCT2; assay type: in vitro ADME
T1 construct: host or cells: HEK293 (HEK293-OCT2); control HEK293-MOCK
T1 sequence (O15244 1-555): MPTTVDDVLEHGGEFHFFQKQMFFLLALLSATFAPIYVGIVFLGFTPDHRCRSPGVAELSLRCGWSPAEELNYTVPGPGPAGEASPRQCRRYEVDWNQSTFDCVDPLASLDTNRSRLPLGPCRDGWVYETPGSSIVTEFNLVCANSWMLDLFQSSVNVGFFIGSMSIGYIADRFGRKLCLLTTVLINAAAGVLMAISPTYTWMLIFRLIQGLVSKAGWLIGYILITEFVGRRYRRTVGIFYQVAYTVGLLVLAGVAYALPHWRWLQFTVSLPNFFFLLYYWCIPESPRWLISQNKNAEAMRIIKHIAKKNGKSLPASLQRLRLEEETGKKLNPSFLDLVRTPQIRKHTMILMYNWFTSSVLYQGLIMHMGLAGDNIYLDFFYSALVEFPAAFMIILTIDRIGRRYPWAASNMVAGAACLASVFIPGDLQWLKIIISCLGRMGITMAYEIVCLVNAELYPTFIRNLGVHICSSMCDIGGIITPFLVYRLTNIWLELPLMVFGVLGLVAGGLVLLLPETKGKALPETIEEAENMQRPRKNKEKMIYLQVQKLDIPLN
Description: All cells (HEK293-MOCK, HEK293-OCT1, HEK293-OCT2, MDCK-MOCK, MDCK-OCTN1, and MDCK-OCTN2) were cultured in DMEM medium supplemented with 10% FBS and PS (100 U/mL), at 37 °C in a humidified 5% CO2 incubator. Cells were seeded on 24-well plates at a density of 1 × 10^4 cells/well. For the uptake assay, the DMEM media were removed, and the cells were washed with pre-warmed Hank’s buffer three times (1 mL/well). Subsequent addition of inhibitor-free/inhibitor-containing buffer was pre-incubated for 30 min at 37 °C prior to the initiation of the uptake experiment. After the pre-incubating buffer was removed, 200 μL of pre-warmed test drugs solution (Hank’s buffer containing 10 µM and 50 µM peramivir) or a mixture of test drugs and inhibitor was added into each well, and the plates were incubated at 37 °C for 5 min. At the end of incubation, cells were washed and lysed as described above. The cell lysate was collected and stored at −40 °C for LC-MS/MS analysis and protein measurement. The negative control (MOCK cells) and positive control were included simultaneously.

CCC(CC)[C@H](NC(C)=O)[C@@H]1[C@H](O)[C@@H](C(=O)O)C[C@H]1N=C(N)N [Peramivir]
Papp A-B [1]: BLQ
Papp B-A [1]: 0.21 ± 0.04 ×10−6 cm/s
OCT2 substrate status ([2]; HEK293-OCT2): does not act as a substrate
transporter-mediated uptake ratio (UR) ([2]; HEK293-OCT2, 50 μM): < 1
inhibition ratio (IR) ([2]; HEK293-OCT2, 50 μM, inhibitor verapamil (200 μM)): exceeding 98.51%
